From patent US20040067540A1, “Rapid method for screening compounds for in vivo activity” (priority 2003, published 2004)

Legend:
[1] = test system: various tumor cell lines; assay: Present method: tumor cells in implanted encapsulation device, response to antitumor agents; type: in vivo
Description: The present method can be utilized as a first line screen to test potential drug candidates for in vivo efficacy.

[2] = test system: p21^WAF1/Clp1 promoter; assay: Hollow fiber p21^WAF1/Clp1 promoter-luciferase reporter assay: light emission from Fibers with H1299C2 cells retrieved from dosed mice; type: in vivo, mouse (mouse (human H1299C2 cells in hollow fibers) H1299C2 cells in hollow fibers); details: H1299C2 cells in hollow fibers implanted s.c. in athymic nude mice; single intravenous dose 50, 25 or 12.5 mg/kg; Fibers retrieved 24 hours after dosing; p<0.01, one tailed Student t-test
Description: A human lung cancer cell line, H1299, is obtained from the American Type Culture Collection, ATCC, Rockville, Md.) and cultured in the RPMI 1640 medium supplemented with 10% heat-inactivated Fetal Bovine Serum (Life Technologies, Grand Island, N.Y.). Cells harvested at approx. 85% confluency are washed with ice cold phosphate buffered saline (PBS) and suspended in the ice cold PBS at a concentration of 2×10^7 cells/mL. One half of one mL of the cell suspension is used for transfection with 10 μg of p21^WAF1/Clp1 luciferase plasmid and NeotetR selectable marker. Transfection is performed by electroporation at […]. Cells are then plated in the above medium containing 0.4 mg/mL G-418 (Life Technologies, Grand Island, N.Y.). One colony is selected, diluted to one cell/well and a single clone is expanded to generate p21^WAF1/Clp1 promoter-luciferase stable cell line designated H1299C2. The cell line tests negative for Mycoplasma contamination (Rapid Detection System by Gen-Probe, Inc., San Diego, Calif.) and for Mouse Antibody Production (MA BioServices, Inc., Rockville, Md.).
The H1299C2 cell line is propagated and expanded for implantation in RPMI 1640 medium containing 10% heat-inactivated Fetal Bovine Serum (Life Technologies, Grand Island, N.Y.) in a cell culture incubator, at 37° C. with humidified atmosphere, containing 5% CO2. […]

In the case of O=c1[nH]cc(F)c(=O)[nH]1 [5-fluorouracil], the “activity when tested on various tumor cell lines with the present method” value (“activity when tested” for short) [1] is reported as “significant activity”.
In the case of CC[C@@]1(O)C(=O)OCc2c1cc1n(c2=O)Cc2cc3ccccc3nc2-1 [camptothecin], the “activity when tested” value [1] is reported as “significant activity”.
For N.N.[Cl][Pt][Cl] [cis-platinum], the “activity when tested” value [1] was “significant activity”.
For O=C(/C=C/c1ccc(CN(CCO)CCc2c[nH]c3ccccc23)cc1)NO [compound 1, N-hydroxy-3-[4-[[(2-hydroxyethyl)[2-(1H-indol-3-yl)-ethyl]-amino]methyl]phenyl]-2E-2-propenamide], the “expression of the reporter gene (firefly luciferase) in vivo as judged by registered light emission from the Fibers” value [2] was “statistically significant (p<0.01, one tailed Student t-test) and reproducible expression of the reporter gene”.
With Cc1[nH]c2ccccc2c1CCNCc1ccc(/C=C/C(=O)NO)cc1 [compound 2, N-hydroxy-3-[4-[[[2-(2-methyl-1H-indol-3-yl)-ethyl]-amino]methyl]phenyl]-2E-2-propenamide] the “expression of the reporter gene (firefly luciferase) in vivo as judged by registered light emission from the Fibers” value [2] was “statistically significant (p<0.01, one tailed Student t-test) and reproducible expression of the reporter gene”.
COc1cccc2c1C(=O)c1c(O)c3c(c(O)c1C2=O)C[C@@](O)(C(=O)CO)C[C@@H]3O[C@H]1C[C@H](N)[C@H](O)[C@H](C)O1 [doxorubicin] was tested, and the “activity when tested” value [1] was “significant activity”.
For COc1cc([C@@H]2c3cc4c(cc3[C@@H](O[C@@H]3O[C@@H]5CO[C@@H](C)O[C@H]5[C@H](O)[C@H]3O)[C@H]3COC(=O)[C@H]23)OCO4)cc(OC)c1O [etoposide], the “activity when tested” value [1] was “significant activity”.
CO[C@@]12[C@H](COC(N)=O)C3=C(C(=O)C(C)=C(N)C3=O)N1C[C@@H]1N[C@@H]12 [mitomycin C] was tested, and the “activity when tested” value [1] was “significant activity”.
In the case of O=C1c2c(O)ccc(O)c2C(=O)c2c(NCCNCCO)ccc(NCCNCCO)c21 [mitoxantrone], the “activity when tested” value [1] is reported as “significant activity”.
With CC(=O)O[C@H]1C(=O)[C@@]2(C)[C@H]([C@H](OC(=O)c3ccccc3)[C@]3(O)C[C@H](OC(=O)[C@H](O)[C@@H](NC(=O)c4ccccc4)c4ccccc4)C(C)=C1C3(C)C)[C@]1(OC(C)=O)CO[C@@H]1C[C@@H]2O [paclitaxel] the “activity when tested” value [1] was “significant activity”.
With CC[C@]1(O)C[C@H]2CN(CCc3c([nH]c4ccccc34)[C@@](C(=O)OC)(c3cc4c(cc3OC)N(C=O)[C@H]3[C@@](O)(C(=O)OC)[C@H](OC(C)=O)[C@]5(CC)C=CCN6CC[C@]43[C@@H]65)C2)C1 [vincristine] the “activity when tested” value [1] was “significant activity”.
